Results reported in patent US8461360B2, “Process for producing γ -mangostin” (Laila Nutraceuticals, priority 2008, dated 2013).

Key:
[1] = Superoxide radical scavenging activity (NBT method); type: biochemical; details: riboflavin/NBT, 560 nm
Procedure: Superoxide radical scavenging activity of test substances was determined by the method of McCord and Fridovich (J. Biol. Chem., 244, 6049, 1969). The assay mixture contained EDTA (6.6 mM containing 3 μg NaCN), riboflavin (2 μM), NBT (50 μM), phosphate buffer (67 mM, pH 7.8) in a final volume of 3 mL and various concentrations of test substances. The tubes were mixed well and optical densities were measured at 560 nm. The tubes were uniformly illuminated with an incandescent lamp for 15 min. and the optical densities were measured again at 560 nm. The percentage inhibition of superoxide radical generation was measured by comparing the absorbance values of control and those of the test substances. The IC50 values were obtained from the plot drawn of the concentration (μg) verses percentage inhibition.

[2] = DPPH free radical scavenging activity; type: biochemical; details: methanolic DPPH solution
Procedure: DPPH free radical scavenging activity was measured by the method of Lamaison, et al., (Pharma Acta Helv. 1991; 66:185) based on the reduction of colored methanolic solution of the DPPH. Free radical scavenging ability of each test substances added to the methanolic solution of DPPH was inversely proportional to the difference in initial and final absorption of DPPH solution at […] Antioxidant activity is expressed as the 50% inhibitory concentration (IC50). The reaction mixture contained 1×10^−4 mM methanolic solution of DPPH and various concentrations of the test substances. Percentage inhibition was determined by comparing the absorbance values of test and control tubes. The IC50 values were obtained from the plot drawn of the concentration (μg) verses percentage inhibition.

[3] = test system: Freund Complete Adjuvant induced arthritis; assay: Freund Complete Adjuvant induced arthritis model, paw edema; type: in vivo, Sprague Dawley rats; details: prednisolone 10 mg/kg body weight for 14 days, positive control; vs CMC control
Procedure: The anti-inflammatory efficacies of α-mangostin and γ-mangostin were evaluated by an in vivo study in Freund Complete Adjuvant induced arthritis model of Sprague Dawley rats. The rats of either sex were randomly selected and divided into […] containing five animals in each group. The treatment group rats were supplemented with 25 mg/kg body weight of α-mangostin or γ-mangostin, or prednisolone (10 mg/kg body weight) for 14 days. The animals of control group received similar volume of 1% CMC only. At the 14 th day, Freund Complete Adjuvant (FCA) was injected subcutaneously in the sub-plantar region of the left hind paw of each animal. At the end of experiment, the animals were sacrificed and liver tissue samples were excised and stored in aliquot at −80° C. Blood samples were collected from each animal at a regular interval and paw volumes were measured by Plethysmography equipment at the day of FCA injection and after 13 days of FCA inoculation. The difference in volume of edema at the day of FCA injection and at 13th day after induction is considered as the inflammatory response. The in vivo anti-inflammatory response of α-mangostin, γ-mangostin and prednisolone was estimated by calculating the percentage of inhibition of paw edema when compared with the CMC supplemented control.

potato 5-lipoxygenase = assay: 5-Lipoxygenase enzyme inhibitory activity; type: biochemical; details: 80 μM linoleic acid, pH 6.3, absorbance 234 nm
Procedure: 5-Lipoxygenase enzyme inhibitory activity was measured using the method of Schewe, et. al. (Adv Enzymol, Vol 58: pp 191-272, 1986), that was modified by Reddanna, et. al., (Methods of Enzymology, Vol 187: pp 268-277, 1990). The assay mixture contained 80 μM linoleic acid and sufficient amount of potato 5-lipoxygenase in 50 mM phosphate buffer (pH 6.3). The reaction was initiated by the addition of enzyme buffer mix to linoleic acid and the enzyme activity was monitored as the increase in absorbance at 234 nm. The reaction was monitored for 120 sec and the inhibitory potential of the test substances was measured by incubating various concentrations of test substances α-mangostin and γ-mangostin two minutes before the addition of linoleic acid. All assays were performed three times. The IC50 values were calculated from the plot drawn of the concentrations of test substances versus percentage inhibition.

[4] = test system: aP2 (Adipocyte fatty acid binding protein); assay: Down-regulation of aP2 protein expression in LPS induced THP-1 derived macrophages (Western blot); type: cell-based, human; details: 5 μg/ml pre-treatment 2 h, LPS 100 ng/ml 16 h, normalized with actin
Procedure: Down-regulation of aP2 protein expression by γ-mangostin and α-mangostin was evaluated in a cell based in vitro model. Briefly, equal number of THP-1 monocyte cells were plated in 40 mm tissue culture petri-dishes and the cells were differentiated to macrophages by treatment with 10 nM Phorbol myristate acetate (PMA) for 24 h. The attached cells in the culture dishes were washed with serum free and phenol red free DMEM; and the differentiated macrophage cells were pre-treated for 2 h with 5 μg/ml of either γ-mangostin or α-mangostin or 0.1% DMSO in serum free DMEM supplemented with 2% BSA. Thereafter, the cells were primed with 100 ng/ml of LPS for 16 h to induce the inflammatory response. The 0.1% DMSO treated cells without LPS treatment were considered as vehicle control. […] The protein content was measured by Coomassie blue based Bradford method and equal amount of cellular protein lysates (2 μg) was resolved in 15% SDS-Polyacrylamide gels. […] The aP2 protein expression was specifically detected by chemiluminescent substrate (Pierce, USA); detection of chemiluminescent bands and densitometric analyses were carried out on Kodak 4000 MM image station (supplied by Kodak, USA). The same nitrocellulose blots were stripped and re-probed with anti-actin antibody (Sigma Chemical CO, USA) and actin protein expression was recorded as an indication of equal protein loading in each, lane. […]

IKK = details: Biochem. Pharmacol. reference; cited from earlier work

O=C1O[C@H]([C@@H](O)CO)C(O)=C1O [Vitamin C]
NBT method IC50 [1]: 123.6 µg/mL | DPPH method IC50 [2]: 3.7 µg/mL

C[C@]12C=CC(=O)C=C1CC[C@@H]1[C@@H]2[C@@H](O)C[C@@]2(C)[C@H]1CC[C@]2(O)C(=O)CO [prednisolone]
inhibition of paw edema [3]: 54%

COc1c(O)cc2oc3cc(O)c(CC=C(C)C)c(O)c3c(=O)c2c1CC=C(C)C [α-Mangostin, 1,3,6-trihydroxy-7-methoxy-2,8-bis-(3-methyl-but-2-only) -xanthen-9-one]
NBT method IC50 [1]: 61.8 µg/mL | DPPH method IC50 [2]: >100 µg/mL | 5-Lipoxygenase inhibitory activity IC50 values (potato 5-lipoxygenase): 2.7 µg/mL | inhibition of aP2 protein expression [4]: inhibition of aP2 protein expression

CC(C)=CCc1c(O)cc2oc3cc(O)c(O)c(CC=C(C)C)c3c(=O)c2c1O [γ-Mangostin, 2,8-bis[(2E)-3-methylbut-2-only)-1,3,6,7-tetrahydroxyxanthen-9-one]
NBT method IC50 [1]: 8.7 µg/mL | DPPH method IC50 [2]: 9.7 µg/mL | 5-Lipoxygenase inhibitory activity IC50 values (potato 5-lipoxygenase): 0.5 µg/mL | inhibition of aP2 protein expression [4]: more potent inhibitor of aP2 in vitro compared to α-mangostin | inhibition of IKK activity (IKK): directly inhibits IKK activity
